Reference: US4939171A, “Sebosuppressive topical preparations” (Henkel Kommanditgesellschaft auf Aktien, priority 1987, dated 1990)

Legend:
sebum [1] = test: Testing and evaluation of the antiseborrhoeic effect: percentage sebum reduction from browning of the backs of male rats; assay type: in vivo; settings: Rattus norvegicus, 336 h, topical, male Wistar rats, 9 applications in 2 weeks; for inhibition in vivo at 0.01 % strength: Concentration 0.01 % by weight; for inhibition in vivo at 0.05 % strength: Concentration 0.05 % by weight; for inhibition in vivo at 0.5 % strength: Concentration 0.5 % by weight; for inhibition in vivo at 0.02 % strength: Concentration 0.02 % by weight; for inhibition in vivo at 0.001 % strength: Concentration 0.001 % by weight; for inhibition in vivo at 0.005 % strength: Concentration 0.005 % by weight; for inhibition in vivo at 0.1 % strength: Concentration 0.1 % by weight
Description: The test is based on the observation that male rats secrete a brownish sebum so that the degree of greasiness of the skin may readily be visually assessed as browning of the skin. […] At the same time, only very small quantities of lipids can be extracted from the hair cut off; cf. J Soc. Cosmet. Chem. 34, 127-135 (1983)).
Male Wistar rats having a body mass of 220 to 230 grams at the beginning of the test were used as the test animals. The test substances, dissolved in a mixtures of equal volumes of ethanol and acetone, were brushed onto half of the back of each of 6 rats for each substance and concentration tested. The other half of the back of each tested rat was treated with the solvent only. One application was made on each tested rat on each of Monday through Friday of one week and on each of Monday through Thursday in the next week; the rats were then evaluated on Friday of the second week. For evaluation, the rats were shaved on their backs and flanks and visually assessed independently by a panel of examiners (6 people) under double-blind conditions. The degree of browning on the backs of the rats was visually assessed as a measure of the sebum coating. A group of six rats of the same type treated on both sides with the solvent only was used for control.
The intensities of the brown color on each control rat, and on the side of each other tested rat that had been treated with a solution containing a substance to be tested for its sebosuppressive ability, were scored according to the following scale:
The sum of the scores for the six treated rats in each group was divided by the sum of the scores for the six control rats for that group, this quotient was multiplied by 100, and that result subtracted from 100, to give the percentage sebum reduction as recorded in the tables below.

sebum [2] = settings: male rats systematically treated; cited from earlier work

| Structure (SMILES) | inhibition in vivo at 0.01 % strength (sebum [1]) [%] | inhibition in vivo at 0.05 % strength (sebum [1]) [%] | other results |
| --- | --- | --- | --- |
| COC(=O)c1ccc(OC(C)CCC2C(C)CCCC2(C)C)cc1 (stereo not shown) [Example 1.1, 4-[4-(1,1,3-trimethyl-2-cyclohexyl)-2-butoxy]-benzoic acid methyl ester] | 25 | 99 |  |
| COC(=O)C=Cc1ccc(OCC2CCCCC2)cc1 [Example 1.2, 4-cyclohexylmethoxycinnamic acid methyl ester] |  |  | inhibition in vivo at 0.5 % strength (sebum [1]): 29% |
| COC(=O)c1ccc(OCCCC2CCCCC2)cc1 [Example 1.3, 4-(3-cyclohexylpropyloxy)-benzoic acid methyl ester] |  | 68 | inhibition in vivo at 0.02 % strength (sebum [1]): 0%; inhibition in vivo at 0.5 % strength (sebum [1]): 99% |
| CC(CCC1C(C)CCCC1(C)C)Oc1ccc(C(=O)O)cc1 (stereo not shown) [Example 1.4, 4-(4-(1,3,3-trimethyl-2-cyclohexyl)-2-butoxy)-benzoic acid] | 93 | 100 | inhibition in vivo at 0.001 % strength (sebum [1]): 73%; inhibition in vivo at 0.005 % strength (sebum [1]): 88% |
| O=C(O)C=Cc1ccc(OCC2CCCCC2)cc1 [Example 1.5, 4-(cyclohexylmethoxy)-cinnamic acid] |  |  | inhibition in vivo at 0.5 % strength (sebum [1]): 15% |
| O=C(O)c1ccc(OCCCC2CCCCC2)cc1 [Example 1.6, 4-(3-cyclohexylpropyloxy)-benzoic acid] | 52 |  | inhibition in vivo at 0.005 % strength (sebum [1]): 0%; inhibition in vivo at 0.02 % strength (sebum [1]): 84% |
| OCC=Cc1ccc(OCC2CCCCC2)cc1 [Example 1.7, 4-cyclohexylmethoxycinnamic alcohol] |  |  | inhibition in vivo at 0.1 % strength (sebum [1]): 53%; inhibition in vivo at 0.5 % strength (sebum [1]): 66% |
| COC(=O)c1ccc(OCC=C(C)CCC=C(C)CCC=C(C)C)cc1 [Example 1.8, 4-farnesyloxybenzoic acid methyl ester] | 38 | 86 |  |
| COC(=O)c1ccc(OC/C=C(\C)CCC=C(C)C)cc1 [Example 1.9, 4-geranyloxybenzoic acid methyl ester] |  |  | inhibition in vivo at 0.1 % strength (sebum [1]): 40% |
| COC(=O)CCc1ccc(OCC=C(C)CCC=C(C)CCC=C(C)C)cc1 [Example 1.11, 3-(4-farnesyloxyphenyl)-propionic acid methyl ester] |  | 86 |  |
| COC(=O)C=Cc1ccc(OCC=C(C)CCC=C(C)CCC=C(C)C)cc1 [Example 1.12, 4-farnesyloxycinnamic acid methyl ester] |  | 85 |  |
| CC(C)=CCCC(C)=CCCC(C)=CCOc1ccc(CCC(=O)O)cc1 [Example 1.13, 3-(4-farnesyloxyphenyl)-propionic acid] |  | 68 |  |
| CC(C)=CCCC(C)=CCCC(C)=CCOc1ccc(C=CC(=O)O)cc1 [Example 1.14, 4-farnesyloxycinnamic acid] |  | 73 |  |
| C/C(=C\COc1ccc(C(=O)O)cc1)CCC[C@H](C)CCC[C@H](C)CCCC(C)C [Example 1.15, 4-phytyloxybenzoic acid] |  | 35 |  |
| CC(C)=CCCC(C)=CCCC(C)=CCOc1ccc(C(=O)O)cc1 [Example 1.16, 4-farnesyloxybenzoic acid] | 69 |  |  |
| CC(C)=CCCC(C)=CCCC(C)=CCOc1ccc(CO)cc1 [Example 1.17, 4-farnesyloxybenzyl alcohol] | 87 | 86 | inhibition in vivo at 0.001 % strength (sebum [1]): 14%; inhibition in vivo at 0.002 % strength (sebum [1]; Concentration 0.002 % by weight): 18%; inhibition in vivo at 0.005 % strength (sebum [1]): 72% |
| CC#C[C@]1(O)CC[C@H]2[C@@H]3CCc4cc(O)ccc4[C@H]3CC[C@@]21C [estrogen] |  |  | skin colour after shearing (browning by sebum) (sebum [2]): only show the normal light, pink-colored skin after shearing |
